Legend:
[1] = molecular target: T1, SulE (Hansschlegelia zhihuaiae, UniProt G9I933, P80R); assay: SPR (Biacore T200, protein amine-coupled to CM7 chip), steady-state affinity; format: binding
T1 construct: pET-29a(+), E. coli BL21(DE3), C-terminal His6 tag; full-length precursor 398 aa, predicted signal peptide cleavage Ala37/Glu38; homodimer, lid loop of one subunit covers active site of the other; residues 12-360 (mature count) seen in crystal

[2] = molecular target: T2, SulE (Hansschlegelia zhihuaiae, UniProt G9I933); assay: as above; format: binding
T2 construct: pET-29a(+), E. coli BL21(DE3), C-terminal His6 tag; full-length precursor 398 aa, predicted signal peptide cleavage Ala37/Glu38; homodimer, lid loop of one subunit covers active site of the other; residues 12-360 (mature count) seen in crystal

[3] = molecular target: T2, SulE; assay: X-ray crystal structure (co-crystal with CE, hydrolysed in crystallisation); format: binding; details: 5 mM CE, 4 °C, pH 5.5; active site
[4] = molecular target: T3, SulE (Hansschlegelia zhihuaiae, UniProt G9I933, S245A/H369A); assay: X-ray crystal structure (co-crystal); format: binding; details: 5 mM substrate, 4 °C, pH 7.0; active site, catalytically dead mutant
T3 construct: pET-29a(+), E. coli BL21(DE3), C-terminal His6 tag; full-length precursor 398 aa, predicted signal peptide cleavage Ala37/Glu38; homodimer, lid loop of one subunit covers active site of the other; residues 12-360 (mature count) seen in crystal

[5] = molecular target: T4, SulE (Hansschlegelia zhihuaiae, UniProt G9I933, P80R/S245A/H369A); assay: X-ray crystal structure (co-crystal); format: binding; details: 5 mM substrate, 4 °C, pH 7.0; active site, catalytically dead mutant
T4 construct: pET-29a(+), E. coli BL21(DE3), C-terminal His6 tag; full-length precursor 398 aa, predicted signal peptide cleavage Ala37/Glu38; homodimer, lid loop of one subunit covers active site of the other; residues 12-360 (mature count) seen in crystal

[6] = molecular target: SulE (wild-type esterase from Hansschlegelia zhihuaiae S113) (Hansschlegelia zhihuaiae S113); assay: crystal structure; X-ray crystal structures of purified SulE and mutants; apo-SulE at 1.46 Å, space group P21, two monomers in the asymmetric unit; sitting-drop vapor diffusion at 4 °C; apo-SulE in 0.1 M citric acid-trisodium citrate pH 5.5, 20% PEG 4000; cocrystals and P44R mutants in 0.1 M ammonium tartrate dibasic pH 7.0, 12-15% PEG 3350, with 5 mM substrate

T3 sequence (G9I933 entry or part of it S245A/H369A): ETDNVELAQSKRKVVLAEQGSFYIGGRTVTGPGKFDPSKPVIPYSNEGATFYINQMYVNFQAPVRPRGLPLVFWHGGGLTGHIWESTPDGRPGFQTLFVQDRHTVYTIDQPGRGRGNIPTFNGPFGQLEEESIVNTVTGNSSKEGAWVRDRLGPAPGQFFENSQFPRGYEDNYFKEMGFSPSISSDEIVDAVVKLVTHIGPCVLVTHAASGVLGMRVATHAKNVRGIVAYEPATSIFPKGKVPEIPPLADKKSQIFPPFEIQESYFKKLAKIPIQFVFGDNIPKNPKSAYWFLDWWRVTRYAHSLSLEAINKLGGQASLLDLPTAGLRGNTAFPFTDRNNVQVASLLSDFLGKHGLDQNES
T2 sequence (G9I933 entry or part of it): as the sequence (G9I933 entry or part of it S245A/H369A) above, with A208S, A332H counted along it
T1 sequence (G9I933 entry or part of it P80R): as the sequence (G9I933 entry or part of it S245A/H369A) above, with P43R, A208S, A332H counted along it
T4 sequence (G9I933 entry or part of it P80R/S245A/H369A): as the sequence (G9I933 entry or part of it S245A/H369A) above, with P43R counted along it

Row | Compound | Kd [1] [µM] | Kd [2] [µM] | X-ray crystal structure (co-crystal) [4] | other results
1 | COC(=O)c1ccccc1CS(=O)(=O)NC(=O)Nc1nc(OC)cc(OC)n1 [BM, bensulfuron-methyl] | 5.75 | 6.34 | – | –
2 | COc1cc(Cl)nc(NC(=O)NS(=O)(=O)c2ccccc2C(=O)O)n1 [CA, chlorimuron acid] | – | – | – | X-ray crystal structure (co-crystal with CE, hydrolysed in crystallisation) [3]: crystal structures of wild-type SulE in complex with CA
3 | CCOC(=O)c1ccccc1S(=O)(=O)NC(=O)Nc1nc(Cl)cc(OC)n1 [CE, chlorimuron-ethyl] | 1.36 | 5.29 | – | –
4 | CCOc1nc(NC)nc(NC(=O)NS(=O)(=O)c2ccccc2C(=O)OC)n1 [EM, ethametsulfuron-methyl] | – | – | mutant S209A/H333A in complex with MM, SM, TM, TrM, EM, BM, and CE | –
5 | COC(=O)c1ccccc1S(=O)(=O)NC(=O)Nc1nc(C)nc(OC)n1 [MM, metsulfuron-methyl] | 2.89 | 5.58 | mutant S209A/H333A in complex with MM, SM, TM, TrM, EM, BM, and CE | X-ray crystal structure (co-crystal) [5]: the triple mutant P44R/S209A/H333A in complex with MM, CE, and TM
6 | COC(=O)c1sccc1S(=O)(=O)NC(=O)Nc1nc(C)nc(OC)n1 [TM, thifensulfuron-methyl] | 7.25 | 8.85 | – | –
7 | COC(=O)c1ccccc1S(=O)(=O)NC(=O)N(C)c1nc(C)nc(OC)n1 [TrM, tribenuron-methyl] | – | – | mutant S209A/H333A in complex with MM, SM, TM, TrM, EM, BM, and CE | –
8 | SulE (wild-type esterase from Hansschlegelia zhihuaiae S113) (enzyme) | – | – | – | stoichiometry N [6]: 2

— paper PMC10356948, “Crystal structures of herbicide-detoxifying esterase reveal a lid loop affecting substrate binding and activity” (Nature Communications, 2023)
